Data reported in ChEMBL document CHEMBL5653631, “A Potent and Selective ULK1 Inhibitor Suppresses Autophagy and Sensitizes Cancer Cells to Nutrient Stress” (iScience, 2018).

What was measured:
[1] = biological target: T1, Discoidin domain-containing receptor 2 (Homo sapiens) (UniProt Q16832); assay: Inhibition of human recombinant DDR2 at 40 nM in presence of ATP by radiometric assay relative to control
T1 sequence (whole entry): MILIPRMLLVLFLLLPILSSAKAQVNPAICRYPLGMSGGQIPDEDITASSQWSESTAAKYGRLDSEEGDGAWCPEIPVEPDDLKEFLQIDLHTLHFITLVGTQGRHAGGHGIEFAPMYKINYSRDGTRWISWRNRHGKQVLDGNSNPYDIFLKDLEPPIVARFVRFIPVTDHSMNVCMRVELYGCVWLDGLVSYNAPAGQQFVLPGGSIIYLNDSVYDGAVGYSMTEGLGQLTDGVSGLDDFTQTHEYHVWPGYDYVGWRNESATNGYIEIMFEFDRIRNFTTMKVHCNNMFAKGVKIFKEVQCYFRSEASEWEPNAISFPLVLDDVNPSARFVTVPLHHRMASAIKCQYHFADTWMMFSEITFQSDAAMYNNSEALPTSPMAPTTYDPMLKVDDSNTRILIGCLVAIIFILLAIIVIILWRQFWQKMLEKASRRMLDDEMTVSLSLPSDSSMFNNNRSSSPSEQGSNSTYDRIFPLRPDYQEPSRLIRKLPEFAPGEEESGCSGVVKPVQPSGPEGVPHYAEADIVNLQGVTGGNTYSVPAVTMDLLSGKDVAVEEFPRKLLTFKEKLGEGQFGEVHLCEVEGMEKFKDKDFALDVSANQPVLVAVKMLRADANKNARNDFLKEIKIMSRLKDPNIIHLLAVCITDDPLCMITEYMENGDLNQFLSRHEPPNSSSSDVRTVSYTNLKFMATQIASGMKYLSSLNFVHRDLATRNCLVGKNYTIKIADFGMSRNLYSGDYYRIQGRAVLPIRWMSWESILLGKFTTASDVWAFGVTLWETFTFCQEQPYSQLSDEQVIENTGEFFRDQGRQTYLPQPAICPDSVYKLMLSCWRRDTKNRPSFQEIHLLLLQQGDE

[2] = biological target: Cyclin-dependent kinase 2 (Homo sapiens) (UniProt P24941); assay: Inhibition of human recombinant CDK2 at 40 nM related to control ULK1
[3] = biological target: Dual specificity protein kinase CLK1 (Homo sapiens) (UniProt P49759); assay: Inhibition of human recombinant CLK1 at 40 nM related to control ULK1
[4] = biological target: T2, Serine/threonine-protein kinase TAO2 (Homo sapiens) (UniProt Q9UL54); assay: Inhibition of human recombinant TAO2 at 500 nM in presence of ATP by radiometric assay relative to control
T2 sequence (whole entry): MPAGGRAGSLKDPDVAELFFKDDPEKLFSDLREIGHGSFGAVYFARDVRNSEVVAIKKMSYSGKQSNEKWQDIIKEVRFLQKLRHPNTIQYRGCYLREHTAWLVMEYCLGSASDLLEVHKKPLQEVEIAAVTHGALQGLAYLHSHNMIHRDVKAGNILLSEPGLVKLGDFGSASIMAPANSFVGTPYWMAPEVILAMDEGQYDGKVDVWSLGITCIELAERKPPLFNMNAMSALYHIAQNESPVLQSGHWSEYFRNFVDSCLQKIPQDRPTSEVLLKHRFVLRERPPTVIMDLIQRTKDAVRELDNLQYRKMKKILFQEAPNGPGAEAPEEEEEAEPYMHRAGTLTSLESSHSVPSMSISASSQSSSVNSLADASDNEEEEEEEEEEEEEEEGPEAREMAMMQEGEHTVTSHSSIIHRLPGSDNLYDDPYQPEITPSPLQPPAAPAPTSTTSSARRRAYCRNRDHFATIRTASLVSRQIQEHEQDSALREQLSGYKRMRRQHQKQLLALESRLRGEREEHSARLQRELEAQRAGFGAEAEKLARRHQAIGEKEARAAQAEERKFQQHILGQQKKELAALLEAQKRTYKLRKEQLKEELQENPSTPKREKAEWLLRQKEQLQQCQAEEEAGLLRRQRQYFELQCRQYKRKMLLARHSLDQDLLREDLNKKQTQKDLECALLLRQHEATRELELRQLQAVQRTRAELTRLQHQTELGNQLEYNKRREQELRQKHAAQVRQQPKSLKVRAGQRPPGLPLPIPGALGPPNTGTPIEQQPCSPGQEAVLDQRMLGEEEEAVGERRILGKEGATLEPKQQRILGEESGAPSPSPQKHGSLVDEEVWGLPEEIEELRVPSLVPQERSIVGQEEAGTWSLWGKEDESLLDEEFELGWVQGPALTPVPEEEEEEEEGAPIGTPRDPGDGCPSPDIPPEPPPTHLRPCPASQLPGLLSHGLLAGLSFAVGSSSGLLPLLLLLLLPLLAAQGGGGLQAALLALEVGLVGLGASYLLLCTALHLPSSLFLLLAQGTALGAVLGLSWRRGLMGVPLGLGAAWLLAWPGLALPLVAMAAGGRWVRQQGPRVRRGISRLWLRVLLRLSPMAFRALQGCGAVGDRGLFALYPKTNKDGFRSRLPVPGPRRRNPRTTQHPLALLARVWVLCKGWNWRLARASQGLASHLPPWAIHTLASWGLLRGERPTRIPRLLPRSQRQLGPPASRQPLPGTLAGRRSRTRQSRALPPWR

[5] = biological target: Dual specificity protein kinase CLK1 (Homo sapiens) (UniProt P49759); assay: Inhibition of human recombinant CLK1 at 500 nM related to control ULK1
[6] = biological target: T3, Beta-adrenergic receptor kinase 1 (Homo sapiens) (UniProt P25098); assay: Inhibition of human recombinant BARK1 at 15 nM related to control ULK1
T3 sequence (whole entry): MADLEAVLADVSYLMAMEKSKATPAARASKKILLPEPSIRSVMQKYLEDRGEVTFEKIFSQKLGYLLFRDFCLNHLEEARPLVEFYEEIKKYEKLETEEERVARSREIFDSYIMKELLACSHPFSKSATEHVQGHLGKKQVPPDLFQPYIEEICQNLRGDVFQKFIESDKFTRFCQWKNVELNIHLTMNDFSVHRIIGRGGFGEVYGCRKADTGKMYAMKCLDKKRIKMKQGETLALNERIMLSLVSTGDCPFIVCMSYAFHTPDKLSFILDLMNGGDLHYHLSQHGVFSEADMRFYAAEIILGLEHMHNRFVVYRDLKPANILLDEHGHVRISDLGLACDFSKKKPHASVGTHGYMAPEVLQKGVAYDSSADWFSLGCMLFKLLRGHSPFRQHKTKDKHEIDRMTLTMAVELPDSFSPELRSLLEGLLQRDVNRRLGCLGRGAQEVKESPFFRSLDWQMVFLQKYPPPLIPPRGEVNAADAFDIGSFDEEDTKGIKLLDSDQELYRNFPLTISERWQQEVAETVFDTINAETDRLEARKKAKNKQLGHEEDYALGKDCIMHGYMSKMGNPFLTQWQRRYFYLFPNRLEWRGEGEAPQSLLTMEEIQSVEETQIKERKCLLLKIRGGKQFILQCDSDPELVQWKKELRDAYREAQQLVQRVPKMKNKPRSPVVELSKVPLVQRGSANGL

Dual specificity protein kinase CLK1 (Homo sapiens), sequence (P49759 whole entry, looked up): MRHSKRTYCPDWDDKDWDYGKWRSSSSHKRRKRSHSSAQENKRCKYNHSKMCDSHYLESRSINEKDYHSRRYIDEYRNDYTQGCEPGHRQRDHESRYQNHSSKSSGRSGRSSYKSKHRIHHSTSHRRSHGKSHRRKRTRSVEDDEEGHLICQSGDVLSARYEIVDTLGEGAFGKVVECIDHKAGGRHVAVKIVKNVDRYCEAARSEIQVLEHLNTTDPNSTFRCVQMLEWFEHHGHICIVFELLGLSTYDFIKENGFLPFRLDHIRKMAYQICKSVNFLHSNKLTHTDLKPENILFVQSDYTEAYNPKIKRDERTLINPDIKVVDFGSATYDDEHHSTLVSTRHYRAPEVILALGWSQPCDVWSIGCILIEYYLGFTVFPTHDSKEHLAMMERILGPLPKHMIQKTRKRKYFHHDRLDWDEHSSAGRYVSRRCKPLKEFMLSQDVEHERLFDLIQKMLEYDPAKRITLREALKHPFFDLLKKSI

Work on O=C(N[C@@H](C1CC1)C(F)(F)F)c1cc(-c2cnn3cc(-c4ccc(F)cc4)cnc23)cs1 yielded an inhibition [1] of 0%, a fold change (FC) [2] of 0.4 and a fold change (FC) [3] of 0.47.

In the case of CNC(=O)c1ccccc1Oc1nc(Nc2cc(OC)c(OC)c(OC)c2)ncc1Br, the inhibition [4] is reported as 0% and the fold change (FC) [5] is reported as 0.07.

CC(C)[C@H](NC(=O)c1cc(-c2cnn3cc(-c4ccc(OCCN5CCCCC5)cc4)cnc23)cs1)C(F)(F)F was tested, and the fold change (FC) [6] was 0.
